Laboratory results reported in ChEMBL document CHEMBL1158802, “Bioactive constituents of the leaves of Phyllanthus polyphyllus var. siamensis” (J Nat Prod, 2005).
Values after ≈ are worked out from the molar mass of the structure shown. Active and inactive are the calls of the source. The rule behind the calls is not given here.

Assays:
KB = assay: Cytotoxicity against human KB cells by colorimetric method; format: functional, cell-based
[1] = Cytotoxicity against human BC cells by colorimetric method; format: functional, cell-based
NCI-H187 = assay: Cytotoxicity against human NCI-H187 cells by colorimetric method; format: functional, cell-based
Vero = assay: Cytotoxicity against african green monkey Vero cells by colorimetric method; format: cell-based; conditions: Chlorocebus sabaeus

`Cc1c2ccncc2c(C)c2c1[nH]c1ccccc12` [ELLIPTECINE] gave an IC50 (KB) of 0.26 mg/L (≈ 1.06 µM), an IC50 [1] of 0.36 mg/L (≈ 1.46 µM) and an IC50 (NCI-H187) of 0.32 mg/L (≈ 1.3 µM).
With `CC(=O)O[C@H]1CO[C@@H](O[C@H]2CC[C@@]3(C)[C@@H](CC[C@]4(C)[C@@H]3CC=C3[C@@H]5CC(C)(C)CC[C@]5(C(=O)O)CC[C@]34C)[C@]2(C)CO)[C@H](O)[C@H]1O` the Activity (KB) was “inactive”, the IC50 (Vero) was 10.7 mg/L (≈ 16.5 µM) and the IC50 [1] was 3.6 mg/L (≈ 5.57 µM). The Activity (NCI-H187) was “inactive”.
With `O=C1C=C2C=C[C@@H](O)C[C@H]2O1` [MENISDAURILIDE] the IC50 (KB) was > 5 mg/L, the IC50 [1] was > 5 mg/L and the IC50 (NCI-H187) was > 5 mg/L.
In the case of `CC1(C)CC[C@]2(C(=O)O)CC[C@]3(C)C(=CC[C@@H]4[C@@]5(C)CC[C@H](O[C@@H]6OC[C@H](O)[C@H](O)[C@H]6O)[C@@](C)(CO)[C@@H]5CC[C@]43C)[C@@H]2C1`, the Activity (KB) is reported as “inactive” and the Activity (NCI-H187) is reported as “inactive”.
For `CC(=O)O[C@@H]1[C@@H](O)[C@H](O[C@H]2CC[C@@]3(C)[C@@H](CC[C@]4(C)[C@@H]3CC=C3[C@@H]5CC(C)(C)CC[C@]5(C(=O)O)CC[C@]34C)[C@]2(C)CO)OC[C@@H]1O`, the Activity (KB) was “inactive” and the Activity (NCI-H187) was “inactive”.
In the case of `COc1cc(C[C@@H](CO)[C@H](CO)Cc2ccc(O)c(OC)c2)ccc1O` [(+)-SECOISOLARICIRESINOL], the IC50 (KB) is reported as > 5 mg/L, the IC50 [1] is reported as > 5 mg/L and the IC50 (NCI-H187) is reported as > 5 mg/L.
For `CC1(C)CC[C@]2(C(=O)O)CC[C@]3(C)C(=CC[C@@H]4[C@@]5(C)CC[C@H](O)[C@@](C)(CO)[C@@H]5CC[C@]43C)[C@@H]2C1` [HEDERAGENIN], the IC50 (KB) was > 5 mg/L, the IC50 [1] was > 5 mg/L and the IC50 (NCI-H187) was > 5 mg/L.
With `CC1(C)CC[C@]2(C(=O)O)CC[C@]3(C)C(=CC[C@@H]4[C@@]5(C)CC[C@H](O[C@@H]6OC[C@H](O)[C@H](O)[C@H]6O)C(C)(C)[C@@H]5CC[C@]43C)[C@@H]2C1` the Activity (KB) was “inactive”, the IC50 (Vero) was 2.8 mg/L (≈ 4.76 µM) and the IC50 [1] was 1.7 mg/L (≈ 2.89 µM). For the same compound, the IC50 (NCI-H187) was 3.2 mg/L (≈ 5.43 µM).
For `OC[C@H](Cc1ccc2c(c1)OCO2)[C@H](CO)Cc1ccc2c(c1)OCO2` [DIHYDROCUBEBIN], the IC50 (KB) was > 5 mg/L, the IC50 [1] was > 5 mg/L and the IC50 (NCI-H187) was > 5 mg/L.
In the case of `CC(=O)O[C@H]1[C@H](O[C@H]2CC[C@@]3(C)[C@@H](CC[C@]4(C)[C@@H]3CC=C3[C@@H]5CC(C)(C)CC[C@]5(C(=O)O)CC[C@]34C)[C@]2(C)CO)OC[C@H](O)[C@@H]1O`, the Activity (NCI-H187) is reported as “inactive”.
`CC(=O)OC[C@@]1(C)[C@@H]2CC[C@]3(C)[C@H](CC=C4[C@@H]5CC(C)(C)CC[C@]5(C(=O)O)CC[C@]43C)[C@@]2(C)CC[C@@H]1O[C@@H]1OC[C@H](OC(C)=O)[C@H](OC(C)=O)[C@H]1OC(C)=O` gave an IC50 (KB) of 3.7 mg/L (≈ 4.79 µM), an IC50 [1] of 3.6 mg/L (≈ 4.66 µM) and an IC50 (NCI-H187) of 2.2 mg/L (≈ 2.85 µM).
For `CC(=O)O[C@@H]1[C@@H](OC(C)=O)[C@H](O[C@H]2CC[C@]3(C)[C@H]4CC=C5[C@@H]6CC(C)(C)CC[C@]6(C(=O)O)CC[C@@]5(C)[C@]4(C)CC[C@H]3C2(C)C)OC[C@@H]1OC(C)=O`, the Activity (KB) was “inactive”, the IC50 (Vero) was 3.2 mg/L (≈ 4.48 µM) and the IC50 [1] was 3.3 mg/L (≈ 4.62 µM). The Activity (NCI-H187) was “inactive”.
